The experiment has as its system virus-infected cells, CPE inhibition, dose response. The experiment in a line: PubChem AID 806. The settings on record: for EC90: measured here: EC90 CPE inhibition; for CC50: measured here: cytotoxicity, cell viability IC50.

Activity calls are given as the source filed them. No rule for the calls is given here.

One may read the EC50 as the concentration that produces a half-maximal response. As a reminder, the EC90 is the point of the concentration-response curve where the effect stands at 90%. One may read the CC50 as the concentration at which the toxic effect on the cells reaches its halfway point. Low readings indicate harm at low concentration, high ones better tolerance by the cells.

Regarding `Cc1ccccc1Nc1ncnc2c1cnn2-c1ccccc1`, the EC50 was > 60 µM (inactive), the EC90 is over 60 µM and the 50% cytotoxic concentration (CC50) was over 60 µM.
With `Cc1ccc(S(=O)(=O)N2CCCCC2C(=O)NCc2ccco2)cc1` (stereo unspecified), the EC50 was > 60 µM (inactive), the 90% effect concentration (EC90) is over 60 µM and the CC50 is over 60 µM.
With `CC(C)(C)c1ccc(S(=O)(=O)N2CCCCC2C(=O)NCc2ccccn2)cc1` (stereo unspecified), the EC50 was > 60 µM (inactive), the EC90 is over 60 µM and the CC50 was over 60 µM.
Take `O=C(c1cnn2c(C(F)(F)F)cc(-c3ccc(Br)cc3)nc12)N1CCOCC1`: the EC50 was > 60 µM (inactive), the EC90 is over 60 µM and the CC50 was over 60 µM.
Consider `O=Nc1c(O)n(Cc2ccc(Cl)cc2)c2ccccc12`, for which the EC50 is > 60 µM (inactive), the EC90 was over 60 µM and the CC50 was over 60 µM.
As for `COc1ccc(-c2nnc3ccc(SCC(=O)NCc4ccco4)nn23)cc1`, the EC50 is > 60 µM (inactive), the EC90 is over 60 µM and the CC50 was over 60 µM.
Regarding `O=C(CCS(=O)(=O)c1cccc2nsnc12)NC1CCCCCC1`, the EC50 is > 60 µM (inactive), the EC90 is over 60 µM and the cytotoxic concentration (CC50) was over 60 µM.
For `COc1ccc(OC)c(Nc2ncnc3c2cnn3-c2ccccc2)c1`, the EC50 is > 60 µM (inactive), the EC90 was over 60 µM and the CC50 was over 60 µM.
Turning to `O=C(Nc1ccc2nc3n(c(=O)c2c1)CCCCC3)c1ccccc1Cl`, the EC50 is > 60 µM (inactive), the EC90 is over 60 µM and the CC50 was over 60 µM.
On to `CC1Cc2ccccc2N1C(=O)C1CCCCN1S(=O)(=O)c1ccccc1` (stereo unspecified), for which the EC50 is > 60 µM (inactive), the EC90 was over 60 µM and the CC50 was over 60 µM.
`O=C(CN1CCN(c2ncccn2)CC1)NCCC1=CCCCC1` showed an EC90 of over 60 µM and a CC50 of over 60 µM.
As to `O=C(NCc1cccs1)c1ccc(N2CCCCC2)nc1`, the EC50 was > 60 µM (inactive), the EC90 is over 60 µM and the CC50 was over 60 µM.
As to `COC(=O)c1ccc(CSc2nnc3n(Cc4ccccc4OC)c(=O)c4ccccc4n23)o1`, the EC50 was > 60 µM (inactive), the EC90 was over 60 µM and the 50% cytotoxic concentration (CC50) was over 60 µM.
In the case of `Cc1nc2nc(-c3ccc(Cl)cc3)[nH]n2c(=O)c1Cc1ccccc1`, the EC50 is > 60 µM (inactive), the EC90 was over 60 µM and the half-maximal cytotoxic concentration (CC50) was over 60 µM.
For the molecule `Cn1nc(C(=O)Nc2c(-c3ccccc3)nc3sccn23)c2ccccc2c1=O`, the EC50 was > 60 µM (inactive), the EC90 was over 60 µM and the CC50 was over 60 µM.
Regarding `CCCCSc1nnc(-c2ccc(C)cc2)o1`, the EC50 is > 60 µM (inactive), the EC90 is over 60 µM and the CC50 was over 60 µM.
In the case of `CCc1c(C)nc2[nH]nc(-c3ccccc3C)n2c1=O`, the EC50 is > 60 µM (inactive), the concentration for an effect of 90% (EC90) is over 60 µM and the CC50 was over 60 µM.
`COc1ccc(-n2ncc3c(Nc4cccc(C)c4)ncnc32)cc1`: the EC50 was > 60 µM (inactive), the EC90 is over 60 µM and the CC50 is over 60 µM.
Consider `CCC(Oc1ccccc1)C(=O)Nc1ccc(-c2nnc(-c3ccco3)o2)cc1` (stereo unspecified), for which the EC50 is > 60 µM (inactive), the EC90 was over 60 µM and the 50% cytotoxic concentration (CC50) was over 60 µM.
As to `N#CCCN1CCn2c1nc1ccccc12`, the EC50 was > 60 µM (inactive), the concentration for an effect of 90% (EC90) was over 60 µM and the CC50 is over 60 µM.
As to `Clc1ccc(Nc2ncnc3c2cnn3-c2ccccc2)cc1`, the EC50 is > 60 µM (inactive), the EC90 is over 60 µM and the CC50 was over 60 µM.
With `COc1ccccc1NC(=O)c1oc2ccc(C)cc2c1C`, the EC50 was > 60 µM (inactive), the EC90 was over 60 µM and the CC50 is over 60 µM.
As to `Cc1cccc(NC(=O)CCS(=O)(=O)c2cccc3nsnc23)c1C`, the EC50 is > 60 µM (inactive), the 90% effect concentration (EC90) is over 60 µM and the cytotoxic concentration (CC50) was over 60 µM.
With `O=C(CSc1ccc2nnc(-c3ccccn3)n2n1)NCc1ccco1`, the EC50 was > 60 µM (inactive), the EC90 is over 60 µM and the CC50 was over 60 µM.
Take `CSc1nnc(-c2ccccc2Cl)o1`: the EC50 is > 60 µM (inactive), the EC90 was over 60 µM and the CC50 is over 60 µM.
For `COC(=O)c1ccc(CN(C(C)=O)c2ccccc2)o1`, the EC50 was > 60 µM (inactive), the EC90 was over 60 µM and the CC50 was over 60 µM.
`CC(C)(C)OC(=O)N[C@@H](Cc1ccccc1)c1nnc(SCC(=O)O)o1`: the EC50 was > 60 µM (inactive), the EC90 is over 60 µM and the CC50 was over 60 µM.
On to `O=C1CSC(=S)N1Cc1cccnc1`, for which the EC50 was > 60 µM (inactive), the EC90 is over 60 µM and the cytotoxic concentration (CC50) was found to be 50.8 µM.
On the same counts, the results for `CC(C)c1cccc(C(C)C)c1OCCCCN1CCCC1` are > 60 µM (inactive), over 60 µM and over 60 µM.
For the molecule `O=C(Nc1ccncc1)c1cc2ccccc2o1`, the EC50 is > 60 µM (inactive), the EC90 was over 60 µM and the CC50 was over 60 µM.
Take `Cc1nc2scc(-c3ccco3)c2c(=O)n1/N=C/N(C)C`: the EC50 is > 60 µM (inactive), the EC90 was over 60 µM and the half-maximal cytotoxic concentration (CC50) was over 60 µM.
`COC(=O)CSc1nnc([C@H](Cc2ccccc2)NC(=O)OC(C)(C)C)o1`: the EC50 was > 60 µM (inactive), the EC90 is over 60 µM and the CC50 was over 60 µM.
In the case of `COc1ccccc1Nc1ncnc2c1cnn2-c1cccc(C)c1`, the EC50 is > 60 µM (inactive), the EC90 was over 60 µM and the CC50 is over 60 µM.
As to `CC(c1ccco1)N(C(=O)COc1ccc(Cl)cc1Cl)c1ccccn1` (stereo unspecified), the EC50 is > 60 µM (inactive), the EC90 was over 60 µM and the CC50 was over 60 µM.
For `O=C1CC(C(=O)Nc2ccccc2)C2(CCCC2)O1` (stereo unspecified), the EC50 was > 60 µM (inactive), the EC90 is over 60 µM and the CC50 is over 60 µM.
For the molecule `CC(C)(C)NC(=O)c1cccc(NC(=O)c2ccc(NC(=O)c3ccco3)cc2)c1`, the EC50 is > 60 µM (inactive), the EC90 was over 60 µM and the CC50 is over 60 µM.
Regarding `CCN(CC)C(=O)CN1CCN(c2ncccn2)CC1`, the EC50 was > 60 µM (inactive), the EC90 is over 60 µM and the CC50 is over 60 µM.
Consider `CN1C(=O)Cn2c1nc1ccccc12`, for which the EC50 was > 60 µM (inactive), the EC90 was over 60 µM and the CC50 was over 60 µM.
In the case of `COc1ccc(OC)c(C2=NOC(C(=O)Nc3cc(C)nn3-c3ccccc3)C2)c1` (stereo unspecified), the EC50 is > 60 µM (inactive), the EC90 was over 60 µM and the CC50 was over 60 µM.
Consider `Cc1ccc(NC(=S)C2=C(O)c3sccc3N(C)S2(=O)=O)cc1`, for which the EC50 is 30.3 µM (inactive), the concentration for an effect of 90% (EC90) is over 60 µM and the half-maximal cytotoxic concentration (CC50) was over 60 µM.
`O=C(c1cnn2c(C(F)F)cc(C3CC3)nc12)N1CCOCC1`: the EC50 was > 60 µM (inactive), the concentration for an effect of 90% (EC90) was over 60 µM and the 50% cytotoxic concentration (CC50) is over 60 µM.
As for `Cc1ccc(OCC(=O)Nc2ccc(-c3nnc(-c4ccco4)o3)cc2)cc1`, the EC50 was > 60 µM (inactive), the 90% effect concentration (EC90) is over 60 µM and the CC50 was over 60 µM.
`O=C(CCS(=O)(=O)c1cccc2nsnc12)NCc1ccccc1Cl`: the EC50 was > 60 µM (inactive), the EC90 was over 60 µM and the CC50 was over 60 µM.
With `CCCCC(CC)CNC(=O)CCS(=O)(=O)c1cccc2nsnc12` (stereo unspecified), the EC50 is > 60 µM (inactive), the EC90 was over 60 µM and the CC50 is over 60 µM.
Take `O=C(c1cnn2c(C(F)(F)F)cc(-c3ccccc3)nc12)N1CCOCC1`: the EC50 is > 60 µM (inactive), the EC90 is over 60 µM and the cytotoxic concentration (CC50) is over 60 µM.
`Cc1c(C(=O)Nc2ccccn2)oc2ccccc12`: the EC50 is > 60 µM (inactive), the EC90 is over 60 µM and the CC50 was over 60 µM.
Regarding `O=C(Nc1ccccc1-c1ccccc1)c1ccc(NC(=O)c2ccco2)cc1`, the EC50 was > 60 µM (inactive), the EC90 was over 60 µM and the half-maximal cytotoxic concentration (CC50) is over 60 µM.
On to `COc1ccc(S(=O)(=O)Nc2ccc(F)cc2)cc1N(C)S(=O)(=O)c1ccc(Cl)cc1`, for which the EC50 is > 60 µM (inactive), the EC90 was over 60 µM and the CC50 was over 60 µM.
On to `COCCNC(=O)c1noc2c1CCc1cc(OC)ccc1-2`, for which the EC50 is > 60 µM (inactive), the concentration for an effect of 90% (EC90) is over 60 µM and the CC50 is over 60 µM.
In the case of `CN(C)S(=O)(=O)c1ccc(C(=O)NCc2ccccc2)cc1`, the EC50 was > 60 µM (inactive), the EC90 was over 60 µM and the CC50 was over 60 µM.
For `CCCCN(C(=O)Cn1nnc2ccccc21)C(C(=O)NCCOC)c1ccc(OC)cc1OC` (stereo unspecified), the EC50 is > 60 µM (inactive), the EC90 was over 60 µM and the CC50 was over 60 µM.
For `O=C(C1CCCCN1S(=O)(=O)c1ccccc1)N1CCCCC1` (stereo unspecified), the EC50 was > 60 µM (inactive), the concentration for an effect of 90% (EC90) was over 60 µM and the CC50 was over 60 µM.
For the molecule `COc1ccc(NC(=O)C2CCCCN2S(=O)(=O)c2ccc(F)cc2)c(OC)c1` (stereo unspecified), the EC50 was > 60 µM (inactive), the EC90 was over 60 µM and the CC50 was over 60 µM.
For `CCOC(=O)/C=C1\SCC(=O)N1CC(=O)NC12CC3CC(CC(C3)C1)C2`, the EC50 was > 60 µM (inactive), the EC90 was over 60 µM and the CC50 is over 60 µM.

These data come from PubChem BioAssay AID806 (SRMLSC, 2007).
